For series [1], the system named is V79 cells.
Protocol: We analyzed the frequency of micronuclei in binucleated cells, as described [86]. Briefly, logarithmically growing cells were treated with cytochalasin B (3 µg/m) for 24 h. After fixation with formaldehyde (3.7% in PBS, 20 min, RT) and washing with PBS, cells were permeabilized using precooled methanol (20 min, −20 °C.) After washing with PBS and rinsing the cell layer with PBS containing Triton X100 (PBST; 0.3% Triton X100 in PBS), DNA was stained by DAPI (4´,6-diamino-2-phenylindole) and the number of micronuclei was evaluated by fluorescence microscopy. Data shown are the mean ± SEM of three independent experiments with ≥1000 binucleated cells evaluated per experimental condition.
For series [2], the system named is V79 cells. This is another data set of the same source.
Protocol: The formation of DNA strand breaks and apurinic/apyrimidinic sites was monitored employing the alkaline comet assay [87], which is part of the OECD guideline of in vivo genotoxicity testings and detects DNA strand breaks (DNA single- and double-strand breaks) and alkali-labile sites [87]. Briefly, after aspiration of the medium and trypsinization, cells were mixed with 0.5% melting agarose and transferred onto agarose-coated (1.5%) slides. After lysis in alkaline buffer (pH 10) (1 h, 4 °C, light protection) and unwinding of the DNA in precooled lysis buffer (pH >13) (20 min, 4 °C, light protection), electrophoresis was performed (electric current: 300 mA constant; 1 V/cm). After neutralization in salt buffer (pH 7.5) and staining with propidium iodide solution (50 µg/mL), comets were evaluated by fluorescence microscopy. Quantification of migrated DNA was performed with TriTek Comet Score™ software Version 1.5, evaluating ≥50 cells per condition (blinded assessment). […] Fold increase in tail intensities of treated cells were calculated by relating the % DNA in tail of treated cells to that of the corresponding untreated controls, which were set to 1.0 (see Figure 2B).
Series [3] concerns IMR-32 neuroblastoma cells. The series can be described thus: Neutral red assay (cytotoxicity), IMR-32 cells. The format is cell-based, human. The protocol: (§1) V79 hamster lung cells, which are recommended in the OECD toxicology guidelines for hazard identification (i.e., cytotoxicity and genotoxicity) of chemicals, were purchased from the German Collection of Microorganisms and Cell Cultures (DSMZ, Braunschweig, Germany). They were cultured in Dulbecco´s modified Eagle medium and Ham´s F12 medium (DMEM/F12) (PromoCell, Heidelberg, Germany) containing 10% fetal calf serum at 37 °C in a humidified atmosphere containing 5% CO2. VC8 hamster cells were defective in DNA double-strand break (DSB) repair by homologous recombination (HR) due to the lack of functional BRCA2 protein [69, 70]. VC8 cells were provided by B. Kaina (Institute of Toxicology, Mainz, Germany). Nucleotide excision repair defective XPA and CSB deficient cells were also provided by B. Kaina and were described before. They were grown in DMEM containing 10% fetal calf serum. Human neuroblastoma cells (IMR-32 and SH-SY5Y) were purchased from the German Collection of Microorganisms and Cell Cultures (DSMZ, Braunschweig, Germany) and were used as a model of malignant cells. They were grown in DMEM or RPMI (Roswell park memorial institute) medium, respectively, containing 10% fetal calf serum. If not stated otherwise, HDACi were added to the exponentially growing cells and analyses were performed 6 h to 72 h later.
(§2) Cell viability was determined using the Alamar blue assay, which reflected the mitochondrial activity. Viable cells were characterized by an effective mitochondrial metabolization of the non-fluorescent dye resazurin (Sigma, Steinheim, Germany) to fluorescent resorufin (excitation: 535 nm, emission: 590 nm). Relative viability in the untreated control was set to 100%. In addition, the Neutral red assay, which measures the integrity of lysosomal membranes, was used to monitor cytotoxicity. To this end, cells were incubated with the Neutral red solution (0.01%) in an atmosphere containing 5% CO2 for 90 min before they were fixed (1% formaldehyde/1% CaCl2). Afterwards, the Neutral red that was taken up by the cells was extracted (50% ethanol/1% of acetic acid, 15 min at room temperature (RT)) and absorbance (540 nm) was measured. If not stated otherwise, data are shown as the mean ± standard deviation (SD) of two to three independent experiments each performed in quadruplicate. Approximate IC50 (~IC50, see Supplementary Table S1) were calculated from the corresponding dose-response curves.

The subject of series [4] is IMR-32 neuroblastoma cells. The experiment in a line: Alamar blue assay (cell viability), IMR-32 cells. It counts as cell-based, human. The protocol:
as §1, §2
On the technique in general: Alamar Blue is a resazurin reagent that responds to reducing activity.

Series [5] concerns V79 hamster lung cells. The experiment in a line: Alamar blue assay (cell viability), V79 cells. It counts as cell-based. Particulars: Alamar blue assay, approximate IC50. The protocol: as §1, §2
In series [6] the test system is SH-SY5Y neuroblastoma cells. The series can be described thus: Neutral red assay (cytotoxicity), SH-SY5Y cells. It counts as cell-based, human. The protocol:
as §1, §2

Series [7] has as its system V79 hamster lung cells. The experiment in a line: Neutral red assay (cytotoxicity), V79 cells. The format is cell-based. As for the experimental part: as §1, §2
In series [8] the test system is SH-SY5Y neuroblastoma cells. The series can be described thus: Alamar blue assay (cell viability), SH-SY5Y cells. It counts as cell-based, human. As for the experimental part: as §1, §2
The test system of another series is XPA-deficient cells. The experiment in a line: Viability of XPA-deficient versus proficient fibroblasts (Alamar blue). It counts as cell-based, human. Particulars: 72 h, in words. As for the experimental part: Figure 7 Sensitivity of nucleotide excision repair (NER) defective cells to hydroxamic acid- and benzamide-type HDACi. Viability of wild-type human fibroblasts and fibroblasts defective in nucleotide excision repair (NER) pathways (i.e., global genome nucleotide excision repair (GG-NER) or transcription-coupled nucleotide excision repair (TC-NER)) due to a defect in Xeroderma pigmentosum group A protein (XPA) or Cockayne syndrome protein B (CSB), respectively, was analyzed 72 h after the addition of HDACi by the Alamar blue assay, as described in Methods. The DNA intrastrand cross-linking agent cisplatin was used for control. Data shown are the mean ± SD from three independent experiments (n = 3) each performed in triplicate (N = 3); ns, not significant; *, p ≤ 0.05; **, p ≤ 0.01 as compared to the corresponding untreated controls (Student´s t-test).
V79 hamster lung cells, which are recommended in the OECD toxicology guidelines for hazard identification (i.e., cytotoxicity and genotoxicity) of chemicals, were purchased from the German Collection of Microorganisms and Cell Cultures (DSMZ, Braunschweig, Germany). They were cultured in Dulbecco´s modified Eagle medium and Ham´s F12 medium (DMEM/F12) (PromoCell, Heidelberg, Germany) containing 10% fetal calf serum at 37 °C in a humidified atmosphere containing 5% CO2. VC8 hamster cells were defective in DNA double-strand break (DSB) repair by homologous recombination (HR) due to the lack of functional BRCA2 protein [69, 70]. VC8 cells were provided by B. Kaina (Institute of Toxicology, Mainz, Germany). Nucleotide excision repair defective XPA and CSB deficient cells were also provided by B. Kaina and were described before. […]
Cell viability was determined using the Alamar blue assay, which reflected the mitochondrial activity. […] Afterwards, the Neutral red that was taken up by the cells was extracted (50% ethanol/1% of acetic acid, 15 min at room temperature (RT)) and absorbance (540 nm) was measured. […] Approximate IC50 (~IC50, see Supplementary Table S1) were calculated from the corresponding dose-response curves.

The subject of series [9] is VC8 hamster cells (BRCA1/2 defect). The series can be described thus: Viability of DSB repair defective VC8 versus wild-type V79 cells (Alamar blue). It counts as cell-based. As to conditions: 72 h, Alamar blue, in words. As for the experimental part:
as §1, §2

Setting [10] is: 24 h, approximate IC50, read-out: IC50 - 24 h Treatment, IMR-32.
[11] abbreviates: 72 h, approximate IC50, read-out: IC50 - 72 h Treatment, IMR-32.
Setting [12] is: 24 h, approximate IC50, read-out: IC50 - 24 h Treatment, SH-SY5Y.
The mark [13] stands for this setting: 72 h, approximate IC50, read-out: IC50 - 72 h Treatment, SH-SY5Y.

Usually IC50 stands for the midpoint of a concentration-inhibition curve.

Take `COS(C)(=O)=O` [MMS, methyl methanesulfonate]: the frequency of micronuclei result in the series with V79 cells [1] is given as “substantial clastogenicity”. Further, the “DNA strand breaks (comet assay)” value in the series on V79 cells [2] is on record as “substantially increased the level of DNA strand breaks”. For the same compound, the “Mean (% DNA in tail)” value in the series with V79 cells [2] (hamster, 0.25 mM) was determined as 50.9 % DNA in tail.

On to `CCCCON(Cc1ccc(C(=O)NO)cc1)C(=O)Nc1cc(C)cc(C)c1` [MPK264], for which the 50% inhibitory concentration (IC50) came to 16 µM in series [3] (setting [10]); 2 µM in series [3] (setting [11]); 12 µM in [4] (setting [10]); 2 µM in [4] (setting [11]); 22 µM with V79 hamster lung cells [5] (24 h, read-out: IC50 - 24 h Treatment, V79); 19 µM in the series on V79 hamster lung cells [5] (72 h, read-out: IC50 - 72 h Treatment, V79). Also, the 50% inhibitory concentration (IC50) in [6] (setting [12]) turned out to be 24 µM; in [6] (setting [13]), 3 µM; with V79 hamster lung cells [7] (24 h, approximate IC50, read-out: IC50 - 24 h Treatment, V79), 20 µM; in the series on V79 hamster lung cells [7] (72 h, approximate IC50, read-out: IC50 - 72 h Treatment, V79), 17 µM; in series [8] (setting [12]), 10 µM; in [8] (setting [13]), 3 µM.

Regarding `N.N.[Cl][Pt][Cl]` [cisplatin], the “sensitivity of XPA-deficient versus XPA proficient cells” value in the series on XPA-deficient cells is recorded as “XPA deficient cells are hypersensitive”.

Turning to `Nc1ccccc1NC(=O)c1ccc(CNc2nccc(-c3cccnc3)n2)cc1` [mocetinostat], the “sensitivity of VC8 cells versus V79 cells” value in series [9] is recorded as “hypersensitive”.

`C/C=C1\NC(=O)[C@H]2CSSCC/C=C/[C@H](CC(=O)N[C@H](C(C)C)C(=O)N2)OC(=O)[C@H](C(C)C)NC1=O` [romidepsin]: in [9], the “sensitivity of VC8 cells versus V79 cells” value is given as “hypersensitive”.

For the origin of these results see article PMC7370100, “In Vitro Assessment of the Genotoxic Hazard of Novel Hydroxamic Acid- and Benzamide-Type Histone Deacetylase Inhibitors (HDACi)” (International Journal of Molecular Sciences, 2020).
